Tests used:
[1] = test system: rat hearts; details: isolated rat hearts, cited from earlier work
[2] = test system: cardiac arrhythmias; details: cited from earlier work
[3] = molecular target: T1, Na^+ /H^+ exchanger (Oryctolagus cuniculus, UniProt P23791); assay: Inhibition of the Na+/H+ exchanger of rabbit erythrocytes (amiloride-sensitive sodium influx, flame photometry); type: cell-based, rabbit (White New Zealand); details: 37° C., pH 7.4, hyperosmolar salt-sucrose medium
T1 construct: endogenous in cells; host or cells: rabbit erythrocytes (whole blood of cholesterol-fed White New Zealand rabbits)
T1 sequence (P23791 whole entry): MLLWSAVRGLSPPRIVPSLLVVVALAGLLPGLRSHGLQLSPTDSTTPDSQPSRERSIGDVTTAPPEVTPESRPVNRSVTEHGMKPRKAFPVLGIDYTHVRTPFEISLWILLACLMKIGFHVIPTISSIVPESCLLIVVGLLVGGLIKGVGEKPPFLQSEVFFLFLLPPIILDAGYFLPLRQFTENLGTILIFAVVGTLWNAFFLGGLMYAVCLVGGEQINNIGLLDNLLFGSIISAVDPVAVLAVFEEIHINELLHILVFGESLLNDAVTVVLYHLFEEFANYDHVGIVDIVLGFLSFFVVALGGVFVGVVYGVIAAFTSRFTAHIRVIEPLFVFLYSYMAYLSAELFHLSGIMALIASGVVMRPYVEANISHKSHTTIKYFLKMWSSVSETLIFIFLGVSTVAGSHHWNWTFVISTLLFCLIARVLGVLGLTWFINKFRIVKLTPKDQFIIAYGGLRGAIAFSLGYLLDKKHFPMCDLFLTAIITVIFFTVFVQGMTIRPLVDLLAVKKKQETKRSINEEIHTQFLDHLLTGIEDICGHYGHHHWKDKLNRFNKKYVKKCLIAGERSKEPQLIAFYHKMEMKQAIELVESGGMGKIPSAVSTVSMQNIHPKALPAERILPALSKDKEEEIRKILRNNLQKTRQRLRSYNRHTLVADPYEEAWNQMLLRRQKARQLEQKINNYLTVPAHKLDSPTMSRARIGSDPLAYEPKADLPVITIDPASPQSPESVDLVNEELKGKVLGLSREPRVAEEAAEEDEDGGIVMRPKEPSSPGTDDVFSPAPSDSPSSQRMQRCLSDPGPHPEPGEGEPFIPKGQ
Description: White New Zealand rabbits (Ivanovas) received a standard diet containing 2% cholesterol for six weeks, in order to activate Na^+ /H^+ exchange and thus to enable the Na^+ influx into the erythrocytes via […] exchange to be determined by flame photometry. The blood was taken from the auricular arteries and made incoagulable by means of 25 IU of potassium heparin. A portion of each sample was used for duplicate determination of the hematocrit by centrifugation. Aliquots of in each case 100 μl were used to measure the initial Na^+ content of the erythrocytes.
In order to determine the amiloride-sensitive sodium influx, 100 μl of each blood sample were incubated at 37° C. and at pH 7.4 in each case in 5 ml of a hyperosmolar salt-sucrose medium (in mmol/l: 140 NaCl, 3 KCl, 150 sucrose, 0.1 ouabain, 20 trishydroxymethylaminomethane). The erythrocytes were then washed three times with ice-cold MgCl2 -ouabain solution (in mmol/l: 112 MgCl2, 0.1 ouabain) and hemolyzed in 2.0 ml of distilled water. The intracellular sodium content was determined by flame photometry.
The net Na^+ influx was calculated from the difference between the initial sodium values and the sodium content of the erythrocytes after incubation. The amiloride-inhibitable sodium influx was given by the difference of the sodium content of the erythrocytes after incubation with and without 3×10^-4 mol/l of amiloride. […]

In the case of `CCN(c1nc(N)c(C(=O)N=C(N)N)nc1Cl)C(C)C` [ethylisopropylamiloride], the “potency relative to amiloride in ventricular fibrillation model” value ([1]; compared with amiloride) is given as “even more potent than amiloride”.

In the case of `NC(N)=NC(=O)c1nc(Cl)c(N)nc1N` [amiloride], the antiarrhythmic effect ([2]; Circulation 79, 1257-63 (1989)) is given as “only weakly pronounced”, the “side-effects accompanying antiarrhythmic effect” value ([2]; in vivo) is given as “hypotensive and saluretic effects” and the “suppression of artificially induced ventricular fibrillation” value ([1]; Eur. Heart J. 9 (suppl.1): 167 (1988)) is given as “completely suppressed”.

With `NC(N)=NC(=O)c1ccc(Oc2ccc(F)cc2)c(S(=O)(=O)C(F)(F)F)c1` [Example 1, 4-(4-Fluorophenoxy)-3-trifluoromethylsulfonylbenzoylguanidine] the IC50 [3] was 200 nM.

Work on `CC(C)c1ccc(C(=O)N=C(N)N)cc1S(=O)(=O)C(F)(F)F` [Example 2, 4-Isopropyl-3-trifluoromethylsulfonylbenzoylguanidine] yielded an IC50 [3] of 70 nM.

— patent US5571842A, “Perfluoroalkyl-substituted, benzoylguanidines, a process for their preparation, their use as a medicament or diagnostic agent, and a medicament containing them” (priority 1994, dated 1996)
